Results as given in the CheMixHub viscosity set.
± gives the uncertainty stated by the source.

Assay: xn = mol fraction of the nth substance listed

CCC#N + CCOC(C)=O
303.15 K, 101.33 kPa
Conditions	viscosity [mPa·s]
x1 = 0.1019	0.4034 ± 0.0035
x1 = 0.1916	0.4041 ± 0.0035
x1 = 0.2921	0.4038 ± 0.0035
x1 = 0.3979	0.4025 ± 0.0035
x1 = 0.4953	0.4012 ± 0.0035
x1 = 0.5954	0.3976 ± 0.0035
x1 = 0.6959	0.3954 ± 0.0035
x1 = 0.7981	0.3935 ± 0.0035
x1 = 0.9006	0.3915 ± 0.0035

CCCCCCCCCCO + CCOC(C)=O
viscosity [mPa·s], 101.33 kPa
Conditions	x2 = 0.1664	x2 = 0.3099	x2 = 0.4348	x2 = 0.545	x2 = 0.6423	x2 = 0.7293	x2 = 0.8073	x2 = 0.8778	x2 = 0.9418
298.15 K	6.2 ± 0.66	3.758 ± 0.4	2.442 ± 0.26	1.698 ± 0.18	1.238 ± 0.14	0.936 ± 0.1	0.809 ± 0.089	0.657 ± 0.073	0.521 ± 0.058
303.15 K	5.263 ± 0.56	3.279 ± 0.35	2.171 ± 0.23	1.533 ± 0.17	1.235 ± 0.14	0.864 ± 0.095	0.719 ± 0.08	0.613 ± 0.068	0.497 ± 0.056
308.15 K	4.52 ± 0.49	2.876 ± 0.31	1.935 ± 0.21	1.384 ± 0.15	1.032 ± 0.11	0.796 ± 0.088	0.647 ± 0.072	0.583 ± 0.065	0.477 ± 0.054

Cc1ccccc1C + CCOC(C)=O
Conditions	viscosity [mPa·s]
298.15 K, 101 kPa, x2 = 0.0459	0.74 ± 0.005
298.15 K, 101 kPa, x2 = 0.1515	0.698 ± 0.005
298.15 K, 101 kPa, x2 = 0.2504	0.661 ± 0.005
298.15 K, 101 kPa, x2 = 0.349	0.625 ± 0.005
298.15 K, 101 kPa, x2 = 0.4636	0.586 ± 0.005
298.15 K, 101 kPa, x2 = 0.4948	0.576 ± 0.005
298.15 K, 101 kPa, x2 = 0.5519	0.557 ± 0.005
298.15 K, 101 kPa, x2 = 0.6488	0.527 ± 0.005
298.15 K, 101 kPa, x2 = 0.7509	0.496 ± 0.004
298.15 K, 101 kPa, x2 = 0.8487	0.468 ± 0.004
298.15 K, 101 kPa, x2 = 0.9146	0.45 ± 0.004
303.15 K, 101.32 kPa, x2 = 0.0599	0.679 ± 0.018
303.15 K, 101.32 kPa, x2 = 0.1789	0.638 ± 0.017
303.15 K, 101.32 kPa, x2 = 0.2918	0.601 ± 0.016
303.15 K, 101.32 kPa, x2 = 0.4303	0.557 ± 0.015
303.15 K, 101.32 kPa, x2 = 0.4994	0.535 ± 0.014
303.15 K, 101.32 kPa, x2 = 0.5537	0.52 ± 0.014
303.15 K, 101.32 kPa, x2 = 0.6001	0.507 ± 0.013
303.15 K, 101.32 kPa, x2 = 0.6951	0.483 ± 0.013
303.15 K, 101.32 kPa, x2 = 0.7859	0.457 ± 0.012
303.15 K, 101.32 kPa, x2 = 0.873	0.437 ± 0.012
303.15 K, 101.32 kPa, x2 = 0.9583	0.414 ± 0.011
308.15 K, 101 kPa, x2 = 0.0459	0.643 ± 0.005
308.15 K, 101 kPa, x2 = 0.1515	0.61 ± 0.005
308.15 K, 101 kPa, x2 = 0.2504	0.579 ± 0.005
308.15 K, 101 kPa, x2 = 0.349	0.551 ± 0.005
308.15 K, 101 kPa, x2 = 0.4636	0.518 ± 0.004
308.15 K, 101 kPa, x2 = 0.4948	0.51 ± 0.004
308.15 K, 101 kPa, x2 = 0.5519	0.495 ± 0.004
308.15 K, 101 kPa, x2 = 0.6488	0.47 ± 0.004
308.15 K, 101 kPa, x2 = 0.7509	0.444 ± 0.004
308.15 K, 101 kPa, x2 = 0.8487	0.421 ± 0.004
308.15 K, 101 kPa, x2 = 0.9146	0.406 ± 0.004
313.15 K, 101.32 kPa, x2 = 0.2056	0.565 ± 0.015
313.15 K, 101.32 kPa, x2 = 0.4079	0.508 ± 0.013
313.15 K, 101.32 kPa, x2 = 0.5023	0.483 ± 0.013
313.15 K, 101.32 kPa, x2 = 0.5988	0.459 ± 0.012
313.15 K, 101.32 kPa, x2 = 0.8018	0.411 ± 0.011

OCCOCCOCCO + CCOC(C)=O
101 kPa
Conditions	viscosity [mPa·s]
298.15 K, x2 = 0.1482	22.05 ± 0.31
308.15 K, x2 = 0.0466	18.65 ± 0.31

Cl[Si](Cl)(Cl)Cl + CCOC(C)OCC
viscosity [mPa·s], 101 kPa
Conditions	303.1 K	313.1 K
x2 = 0.13	0.45 ± 0.019	0.41 ± 0.017
x2 = 0.2026	0.45 ± 0.019	0.413 ± 0.017
x2 = 0.3244	0.459 ± 0.019	0.421 ± 0.018
x2 = 0.4102	0.475 ± 0.02	0.427 ± 0.018
x2 = 0.4927	0.492 ± 0.02	0.442 ± 0.018
x2 = 0.5909	0.515 ± 0.021	0.461 ± 0.019
x2 = 0.6377	0.534 ± 0.022	0.476 ± 0.02
x2 = 0.6703	0.538 ± 0.022	0.484 ± 0.02
x2 = 0.71	0.552 ± 0.023	0.49 ± 0.02
x2 = 0.7457	0.541 ± 0.022	0.481 ± 0.02
x2 = 0.8082	0.52 ± 0.021	0.467 ± 0.019
x2 = 0.8385	0.492 ± 0.02	0.447 ± 0.019
x2 = 0.8813	0.456 ± 0.019	0.41 ± 0.017
x2 = 0.9655	0.416 ± 0.017	0.375 ± 0.016
